Among the data in patent US10005768B2, “Carboxamide derivatives and use thereof” (Purdue Pharma L.P., priority 2013, dated 2018) are IC50 values, retold here.

The target in one experiment is T1, human Nav1.7 (Homo sapiens (Human), UniProt Q15858). Kind of experiment: FLIPR membrane potential dye assay (alternative fluorescence assay). The class given is cell-based. The conditions noted are these: recombinant Nav1.7/HEK293 cells. On the procedure: In vitro assays were performed in a recombinant cell line expressing cDNA encoding the alpha subunit (Nav1.7, SCN9a, PN1, NE) of human Nav1.7 (Accession No. NM_002977). The cell line was provided by investigators at Yale University (Cummins et al, J. Neurosci. 18(23): 9607-9619 (1998)). For dominant selection of the Nav1.7-expressing clones, the expression plasmid co-expressed the neomycin resistance gene. The cell line was constructed in the human embryonic kidney cell line, HEK293, under the influence of the CMV […] promoter, and stable clones were selected using limiting dilution cloning and antibiotic selection using the neomycin analogue, G418. Recombinant beta and gamma subunits were not introduced into this cell line. Additional cell lines expressing recombinant Nav1.7 cloned from other species can also be used, alone or in combination with various beta subunits, gamma subunits or chaperones.
T1 sequence (Q15858 other isoform, or with tags, fused parts or gaps): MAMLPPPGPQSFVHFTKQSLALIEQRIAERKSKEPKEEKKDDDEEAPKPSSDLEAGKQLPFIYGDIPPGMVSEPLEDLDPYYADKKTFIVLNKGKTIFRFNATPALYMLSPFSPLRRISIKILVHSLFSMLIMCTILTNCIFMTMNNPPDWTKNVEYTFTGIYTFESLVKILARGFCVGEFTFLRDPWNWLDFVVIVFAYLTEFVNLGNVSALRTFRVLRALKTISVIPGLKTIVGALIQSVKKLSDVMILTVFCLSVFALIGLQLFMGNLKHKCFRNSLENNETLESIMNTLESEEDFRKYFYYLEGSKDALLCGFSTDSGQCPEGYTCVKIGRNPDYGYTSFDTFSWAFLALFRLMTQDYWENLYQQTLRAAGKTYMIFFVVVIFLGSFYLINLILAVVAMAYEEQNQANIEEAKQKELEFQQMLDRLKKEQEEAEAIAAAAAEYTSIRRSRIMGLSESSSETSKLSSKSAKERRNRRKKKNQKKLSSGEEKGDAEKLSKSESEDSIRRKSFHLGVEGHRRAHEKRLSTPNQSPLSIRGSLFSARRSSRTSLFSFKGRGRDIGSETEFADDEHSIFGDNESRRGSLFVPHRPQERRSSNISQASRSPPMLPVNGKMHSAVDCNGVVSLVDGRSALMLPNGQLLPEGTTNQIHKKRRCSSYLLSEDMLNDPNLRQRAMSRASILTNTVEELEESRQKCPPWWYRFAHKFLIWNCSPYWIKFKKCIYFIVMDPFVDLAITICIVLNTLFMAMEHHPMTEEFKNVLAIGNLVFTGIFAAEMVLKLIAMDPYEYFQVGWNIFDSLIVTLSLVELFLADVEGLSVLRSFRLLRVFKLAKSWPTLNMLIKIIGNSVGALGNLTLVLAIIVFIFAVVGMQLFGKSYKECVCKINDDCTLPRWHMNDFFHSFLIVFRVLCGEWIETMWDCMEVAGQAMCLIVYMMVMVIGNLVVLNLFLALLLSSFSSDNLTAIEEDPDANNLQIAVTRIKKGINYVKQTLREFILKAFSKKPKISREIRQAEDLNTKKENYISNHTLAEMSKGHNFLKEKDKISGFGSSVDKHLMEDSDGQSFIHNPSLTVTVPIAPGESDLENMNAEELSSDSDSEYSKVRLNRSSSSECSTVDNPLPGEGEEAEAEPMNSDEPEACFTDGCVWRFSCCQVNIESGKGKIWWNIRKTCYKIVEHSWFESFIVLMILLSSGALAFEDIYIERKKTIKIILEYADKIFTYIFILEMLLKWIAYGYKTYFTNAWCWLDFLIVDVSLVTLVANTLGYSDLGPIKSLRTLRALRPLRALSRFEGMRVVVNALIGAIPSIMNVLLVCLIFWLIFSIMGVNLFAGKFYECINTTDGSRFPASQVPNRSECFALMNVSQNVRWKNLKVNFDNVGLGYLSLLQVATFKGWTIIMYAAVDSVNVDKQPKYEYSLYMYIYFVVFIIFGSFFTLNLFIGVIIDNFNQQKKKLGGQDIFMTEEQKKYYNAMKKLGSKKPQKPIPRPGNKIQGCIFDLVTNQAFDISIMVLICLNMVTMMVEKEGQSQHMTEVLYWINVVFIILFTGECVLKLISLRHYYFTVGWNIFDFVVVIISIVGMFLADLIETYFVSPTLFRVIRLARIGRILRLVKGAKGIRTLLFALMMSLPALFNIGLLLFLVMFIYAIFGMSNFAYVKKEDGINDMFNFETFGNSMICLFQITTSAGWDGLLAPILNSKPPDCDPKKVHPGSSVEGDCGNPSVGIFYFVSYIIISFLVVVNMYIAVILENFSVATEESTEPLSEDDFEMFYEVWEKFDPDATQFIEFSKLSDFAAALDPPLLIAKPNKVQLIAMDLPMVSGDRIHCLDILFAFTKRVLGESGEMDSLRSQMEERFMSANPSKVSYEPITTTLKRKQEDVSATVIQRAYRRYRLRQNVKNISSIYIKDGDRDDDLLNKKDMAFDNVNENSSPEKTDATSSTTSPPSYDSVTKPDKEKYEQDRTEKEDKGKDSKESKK
A fluorescence indicator that can be used in alternative fluorescence assays is the blue version membrane potential dye (MDS, Molecular Devices, Sunnyvale, Calif.), a dye that detects changes in molecules following a change in membrane potential. An increase in fluorescence is expected if agonist stimulation provokes a change in membrane potential. Cells expressing Nav1.7 or other sodium channels are incubated with the membrane potential dye 30-60 minutes before the fluorescence assay. In the case of the KCl pre-stimulation version of the assay, the dye and all other components are washed out immediately before the assay, and the dye is then replaced. In the version lacking KCl pre-stimulation, the dye remains on the cells and is not washed out or replaced. The dye is stored in the dark as a lyophilized powder, and then an aliquot dissolved in assay buffer to form a 20×-concentrated stock solution that can be used for several weeks.
In the fluorescence assays, two agonists were used in combination, namely 1) veratridine; and 2) the venom from the yellow scorpion, Leiurus quinquestriatus hebraeus. Veratridine is an alkaloid small molecule that facilitates the capture of channel openings by inhibiting inactivation, and the scorpion venom is a natural preparation that includes peptide toxins selective for different subsets of voltage-gated sodium channels. These scorpion toxins inhibit the fast inactivation of their cognate target channels. Stock solutions of the agonists were prepared to 40 mM in DMSO (veratridine) and 1 mg/mL in dH2O (scorpion venom), and then diluted to make a 4× or 2× stock (depending on the particular assay) in assay buffer, the final concentration being 100 μM (veratridine) and 10 μg/mL (scorpion venom). Both of the agonists were purchased from Sigma Aldrich, St. Louis, Mo.
Test compounds were dissolved in DMSO to yield 10 mM stock solutions. The stock solutions were further diluted using DMSO in 1:3 serial dilution steps with 10 points (10,000 μM, […], 370 μM, 123 μM, 41 μM, 14 μM, 4.6 μM, 1.5 μM and 0.5 μM). The stock solutions were further diluted in assay buffer (1:125) as 4× stock serial dilutions with a DMSO concentration of 0.8% (final [DMSO], in the assay, from the compounds component=0.2%), so that the compounds' final concentrations in the assay were 20 μM, 6.7 μM, 2.2 μM, 0.74 μM, 0.25 μM and 0.08 μM, 0.03 μM, 0.01 μM, 0.003 μM and 0.001 μM. If a particular test article appeared to be especially potent, then the concentration curve was adjusted, e.g., to 10-fold lower concentrations, in order to perform the dose-response in a more relevant concentration range. Compound dilutions were added during the dye-loading and pre-stimulation step, and then again during the fluorescence assay, early in the kinetic read.
The data were analyzed according to methods known to those skilled in the art or using the GraphPad® Prism Program, version 4.0 or higher (available from GraphPad Software, San Diego, Calif.) to determine the IC50 value for the test article. […]
One may read the IC50 as the concentration needed to halve the response being measured. As for `CCN(C)C(=O)c1cc(C(F)(F)F)ccc1Oc1ccc(-c2cccc([C@H](O)CO)n2)cc1` [compound 169, (S)-2-(4-(6-(1,2-dihydroxy-ethyl)pyridin-2-yl)phenoxy)-N-ethyl-N-methyl-5-(trifluoro-methyl)benzamide], the IC50 is 1.55 ± 0.286 µM.

For `Cn1nccc1-c1cc(C(F)(F)F)ccc1Oc1ccc(-c2nc(N[C@H]3CCNC3=O)cc(C(N)=O)n2)cc1` [compound 126, (S)-2-(4-(2-(1-methyl-1H-pyrazol-5-yl)-4-(trifluoromethyl)phenoxy)phenyl)-6-((2-oxopyrrolidin-3-yl)amino)pyrimidine-4-carboxamide], the IC50 came out at 0.288 ± 0.045 µM.

Regarding `O=C(NCc1nnn[nH]1)c1cc(C(F)(F)F)ccc1Oc1ccc(-c2cccc([C@H](O)CO)n2)cc1` [compound 176, (S)-N-((1H-tetrazol-5-yl)methyl)-2-(4-(6-(1,2-dihydroxyethyl)-pyridin-2-yl)phenoxy)-5-(trifluoromethyl)benzamide], the 50% inhibitory concentration (IC50) was above 20 µM.

Consider `CCN(CCO)C(=O)c1cc(C(F)(F)F)ccc1Oc1ccc(-c2cccc([C@H](O)CO)n2)cc1` [compound 171, (S)-2-(4-(6-(1,2-dihydroxyethyl)pyridin-2-yl)phenoxy)-N-ethyl-N-(2-hydroxyethyl)-5-(trifluoro-methyl)benzamide], for which the IC50 was above 20 µM.

For `C[C@H](Nc1cc(C(N)=O)nc(-c2ccc(Oc3ccc(C(F)(F)F)cc3-c3ccnn3C)cc2)n1)C(N)=O` [compound 138, (S)-6-((1-amino-1-oxopropan-2-yl)amino)-2-(4-(2-(1-methyl-1H-pyrazol-5-yl)-4-(trifluoromethyl)phenoxy)phenyl) pyrimidine-4-carboxamide], the half-inhibitory concentration (IC50) came to 0.6 ± 0.077 µM.

With `CN(C)c1cnc(-c2cc(C(F)(F)F)ccc2Oc2ccc(-c3nc(N[C@H]4CCNC4=O)cc(C(N)=O)n3)cc2)cn1` [compound 129, (S)-2-(4-(2-(5-(dimethylamino)pyrazin-2-yl)-4-(trifluoromethyl)phenoxy)phenyl)-6-((2-oxopyrrolidin-3-yl)amino)pyrimidine-4-carboxamide], the 50% inhibitory concentration (IC50) was 0.702 ± 0.035 µM.

The target in the next experiment is T1, human Nav1.7. Kind of experiment: FLIPR sodium dye assay (CoroNa Green AM Na+ dye, primary fluorescence assay). The settings on record: recombinant Nav1.7/HEK293 cells. It is filed as cell-based. The gist of the method: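 HEK293 cells stably expressing human Nav1.7 α subunit (no β/γ subunits), loaded with 5 μM CoroNa Green Na+ dye in HEPES-buffered Hanks-type saline, pH 7.3. Na+ influx stimulated by 100 μM veratridine plus 10 μg/mL Leiurus scorpion venom; compounds tested at 20 μM down to 0.001 μM (10 points, 0.2% DMSO).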
`COCc1cc(-c2cccc(C(N)=O)n2)ccc1Oc1ccc(F)cc1` [compound 103, 6-(4-(4-fluorophenoxy)-3-(methoxymethyl)phenyl)picolin-amide]: the half-inhibitory concentration (IC50) is 0.312 ± 0.008 µM.

On to `NC(=O)c1cccc(-c2ccc(Oc3ccc(C(F)(F)F)c(CNCCC(F)(F)F)c3)cc2)n1` [compound 55, 6-(4-(4-(trifluoromethyl)-3-(((3,3,3-trifluoropropyl)amino)-methyl)phenoxy)phenyl)picolin-amide], for which the concentration for half-maximal inhibition (IC50) came to 0.174 ± 0.018 µM.

For `NC(=O)c1cccc(-c2ccc(Oc3ccc(C(F)(F)F)cc3CN3CCCC(C(N)=O)C3)cc2)n1` (centres unmarked) [compound 121, 6-(4-(2-((3-carbamoylpiperidin-1-yl)methyl)-4-(trifluoromethyl)phenoxy)phenyl) picolinamide], the 50% inhibitory concentration (IC50) is 0.716 ± 0.09 µM.

On to `CN1CCN(C(=O)c2cc(C(F)(F)F)ccc2Oc2ccc(-c3cccc(C(N)=O)n3)cc2)CC1` [compound 162, 6-(4-(2-(4-methylpiperazine-1-carbonyl)-4-(trifluoromethyl)phenoxy)phenyl)picolinamide], for which the IC50 was determined as 7.95 ± 0.402 µM.

As for `NC(=O)c1cccc(-c2ccc(Oc3ccc(C(F)(F)F)cc3CN3CCC3)cc2)n1` [compound 50, 6-(4-(2-(azetidin-1-ylmethyl)-4-(trifluoromethyl)phenoxy)phenyl) picolinamide], the half-inhibitory concentration (IC50) was 0.768 ± 0.051 µM.

As to `NC(=O)c1cccc(-c2ccc(Oc3ccc(F)cc3)c(CN3CCOCC3)c2)n1` [compound 98, 6-(4-(4-fluorophenoxy)-3-(morpholinomethyl)phenyl)picolin-amide], the IC50 turned out to be 0.961 ± 0.07 µM.

`NCc1cc(C(F)(F)F)ccc1Oc1ccc(-c2cccc(C(N)=O)n2)cc1` [compound 65, 6-(4-(2-(aminomethyl)-4-(trifluoromethyl)phenoxy)phenyl) picolinamide]: the half-maximal inhibitory concentration (IC50) was determined as 0.862 ± 0.012 µM.

As for `NC(=O)c1cccc(-c2ccc(Oc3ccc(C(F)(F)F)cc3CN3CC[C@H](O)C3)cc2)n1` [compound 36, (S)-6-(4-(2-((3-hydroxypyrrolidin-1-yl)methyl)-4-(trifluoromethyl)-phenoxy)phenyl)picolinamide], the IC50 was 0.432 ± 0.131 µM.

With `NC(=O)c1cccc(-c2ccc(Oc3ccc(C(F)(F)F)cc3CNC3CCNC3)cc2)n1` (centres unmarked) [compound 61, 6-(4-(2-((pyrrolidin-3-ylamino)methyl)-4-(trifluoromethyl)phenoxy)phenyl) picolinamide], the 50% inhibitory concentration (IC50) amounted to 2.04 ± 0.06 µM.

As to `CCN(CC)C(=O)c1cc(C(F)(F)F)ccc1Oc1ccc(-c2cccc(C(N)=O)n2)cc1` [compound 164, 6-(4-(2-(diethylcarbamoyl)-4-(trifluoromethyl)phenoxy)phenyl) picolinamide], the IC50 was 0.143 ± 0.023 µM.

For `NC(=O)c1cccc(-c2ccc(Oc3ccc(C(F)(F)F)cc3CN3CCNC(=O)C3)cc2)n1` [compound 35, 6-(4-(2-((3-oxopiperazin-1-yl)methyl)-4-(trifluoromethyl)-phenoxy)phenyl)picolinamide], the concentration for half-maximal inhibition (IC50) is 0.141 ± 0.022 µM.

`CCOCc1cc(-c2cccc(C(N)=O)n2)ccc1Oc1ccc(F)cc1` [compound 96, 6-(3-(ethoxymethyl)-4-(4-fluorophenoxy)phenyl) picolinamide]: the half-maximal inhibitory concentration (IC50) stood at 1.13 ± 0.11 µM.

In the case of `NC(=O)c1cccc(-c2ccc(Oc3ccc(C(F)(F)F)cc3C(C(N)=O)N3CCCC3)cc2)n1` (centres unmarked) [compound 81, 6-(4-(2-(2-amino-2-oxo-1-(pyrrolidin-1-yl)ethyl)-4-(trifluoromethyl)phenoxy)phenyl) picolinamide], the 50% inhibitory concentration (IC50) came to 0.71 ± 0.0008 µM.

Regarding `NC(=O)c1cccc(-c2ccc(Oc3ccc(C(F)(F)F)cc3/C=C3\SC(=O)NC3=O)cc2)n1` [compound 155, (Z)-6-(4-(2-((2,4-dioxothiazolidin-5-ylidene)methyl)-4-(trifluoromethyl)phenoxy)phenyl) picolinamide], the half-inhibitory concentration (IC50) is above 20 µM.

With `N#Cc1ccc(Oc2ccc(-c3cccc(C(N)=O)n3)cc2)c(-c2cccnc2)c1` [compound 16, 6-(4-(4-cyano-2-(pyridin-3-yl)phenoxy)phenyl)picolinamide], the IC50 worked out at 0.104 ± 0.02 µM.

Take `OC[C@H](O)c1ccnc(-c2ccc(Oc3ccc(C(F)(F)F)cc3CN3CCCC3)cc2)n1` [compound 115, (R)-1-(2-(4-(2-(pyrrolidin-1-ylmethyl)-4-(trifluoromethyl)phenoxy)phenyl)pyrimidin-4-yl)ethane-1,2-diol]: the IC50 is 0.455 ± 0.067 µM.

`NC(=O)c1cccc(-c2ccc(Oc3ccc(F)cc3)c(-c3nn[nH]n3)c2)n1` [compound 101, 6-(4-(4-fluorophenoxy)-3-(2H-tetrazol-5-yl)phenyl)picolinamide]: the IC50 came to 1.83 ± 0.383 µM.

As to `COC(=O)c1cccc(-c2ccc(Oc3ccc(C(F)(F)F)cc3C(O)C#N)cc2)n1` (centres unmarked) [compound 144, methyl 6-(4-(2-(cyano(hydroxy)methyl)-4-(trifluoromethyl)phenoxy)phenyl) picolinate], the IC50 is 3.79 ± 0.377 µM.

Consider `CN(C)CCCNCc1cc(C(F)(F)F)ccc1Oc1ccc(-c2cccc(C(N)=O)n2)cc1` [compound 38, 6-(4-(2-(((3-(dimethylamino)-propyl)amino)methyl)-4-(trifluoromethyl)phenoxy)phenyl) picolinamide], for which the concentration for half-maximal inhibition (IC50) worked out at 1.69 ± 0.157 µM.

`CN(C)Cc1cc(C(F)(F)F)ccc1Oc1ccc(-c2cccc(C(N)=O)n2)cc1` [compound 39, 6-(4-(2-((dimethylamino)methyl)-4-(trifluoromethyl)phenoxy)-phenyl)picolinamide]: the half-inhibitory concentration (IC50) turned out to be 0.179 ± 0.034 µM.
